In the METLIN SMRT retention time set (Domingo-Almenara et al. 2019):

Experiment: gradient 5% acetonitrile 3 min, to 50% in 2 min, to 85% in 15 min, held 3 min, 100 µL/min
Conditions: column: Zorbax Extend-C18 2.1 x 50 mm; eluents: water / acetonitrile, 0.1% formic acid
Procedure, shortened: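 The system's dead and dwell volumes were 40 μL and 900 μL, with a Zorbax Extend-C18 column (2.1 × 50 mm, 1.8 μm) run at 100 μL/min in water and acetonitrile containing 0.1% formic acid each. Pure standards were analyzed in mixtures of ~100 molecules by HPLC–quadrupole time-of-flight mass spectrometry in positive and negative ionization mode. Retention time was assigned from computationally picked, manually inspected adduct peaks.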

Structure (SMILES) | RP-LC retention time
COC(=O)c1cc(Nc2ccc(OC)cc2OC)c2ccccc2n1 | 581 s
Cn1cc(-c2cc3n(n2)CCC(=O)N3CC(=O)NCC2COCCO2)c2ccccc21 (centres undefined) | 667 s
CCC(=O)c1cn(CC(=O)NCc2cc3c(cc2OC)OCCCO3)c2ccccc12 | 837 s
O=C(CCn1cnc2ccccc2c1=O)N1CCN(c2ccccn2)CC1 | 578 s
CCOc1ccccc1CNC(=O)C1CCN(C(=O)c2sccc2-n2cccc2)CC1 | 882 s
O=C(CCN(CC1CCCO1)C(=O)c1cccc(Br)c1)N1CCNCC1 (centres undefined) | 610 s
COCCNC(=O)c1ccccc1Sc1nccnc1Oc1ccccc1 | 852 s
CC(C)n1c(=O)oc2cc(-c3noc(-c4ccc(C(F)(F)F)cc4)n3)ccc21 | 1310 s
COCCC(=O)N1CCC(N2C(=O)C(OC)C23CCOCC3)CC1 (centres undefined) | 555 s
CCn1cc(S(=O)(=O)N2CCCCC2CCn2cc(-c3ccccc3)nn2)cn1 (centres undefined) | 804 s
CCS(=O)(=O)Nc1ccc(C2(C(=O)NCc3cccc(F)c3)CCCCC2)cc1 | 933 s
O=C(CN1C(=O)NC2(CCCCC2)C1=O)NCc1ccccc1F | 733 s
Cc1cccn2cc(-c3ccc(NS(=O)(=O)c4ccccc4)cc3)nc12 | 617 s
COc1ccc(C2CC(=O)c3cnn(-c4nc5ccccc5[nH]4)c3C2)c(OC)c1 (centres undefined) | 649 s
O=C(COc1ccc(F)cc1)N1CCC2(CC1)NC(=O)N(Cc1ccc(Cl)cc1)C2=O | 810 s
NC(=O)C1CCN(C(=O)Cc2csc(NC(=O)Nc3ccccc3)n2)CC1 | 622 s
O=C(c1ccco1)N1CCN(S(=O)(=O)CCCOc2ccc3c(c2)OCO3)CC1 | 764 s
O=C(Cn1cccn1)NC1CCc2nnc(C3CC3)n2CC1 (centres undefined) | 543 s
Cc1ccccc1CNC(=O)C1(C)CCCN(C(=O)Nc2ccccc2C(F)(F)F)C1 (centres undefined) | 1010 s
COc1ccc(C(O)CN2CCN(c3ncccn3)CC2)cc1OC (centres undefined) | 566 s
N#CCCN(C(=O)c1noc2c1CCCC2)c1ccccc1 | 827 s
CCC(CC)C(=O)N1C[C@H](c2nc(-c3ccncc3)no2)[C@@H](C)C1 | 793 s
CCC(C)NC(=O)C1CCN(c2cnc(N3CCN(CC)CC3)nc2)CC1 (centres undefined) | 575 s
O=C1c2cc(O)cc(O)c2OC[C@@H]1c1ccc(O)c(O)c1 | 834 s
Cc1ccccc1-c1nc(-c2ccc3c(c2)nnn3CCN2CCOCC2)no1 | 706 s
CCOCC(=O)Nc1ccc2c(c1)Sc1ncccc1C(=O)N2CC | 697 s
COc1ccc(-c2noc(-c3nn(-c4ccc(Cl)cc4)ccc3=O)n2)cc1 | 877 s

Structure (SMILES) | RP-LC retention time
CCCn1cc(CCNC(=O)Nc2ccc(C)c(F)c2)c2cccnc21 | 807 s
CN(CC(=O)O)c1nc2c(F)cccc2s1 | 689 s
COc1ccc(C(=O)N2C[C@@H]3C[C@H]2C[C@@H]3NC(=O)c2cccs2)cc1F | 712 s
COc1ccc(Cc2nnc3sc(-c4ccccc4OC)nn23)cc1 | 976 s
CC(C)NC(=O)N1CCCC(c2cccc(C(=O)NCC3CCCCC3)c2)C1 (centres undefined) | 945 s
CC(C)(C)n1ncc2c(=O)n(NC(=O)c3cc(=O)c4ccccc4o3)cnc21 | 713 s
Cc1ccccc1-n1ncc2c(C)nn(CC(=O)Nc3cccc(C(F)(F)F)c3)c(=O)c21 | 941 s
CCNC(=O)N1CCN(CCCC(c2ccc(F)cc2)c2ccc(F)cc2)CC1 | 766 s
COc1ccc(CNC(=O)c2c(O)c3cccnc3[nH]c2=O)cc1OC | 804 s
O=C(Nc1nc(-c2ccccc2)cs1)C(=O)c1c[nH]c2ccccc12 | 1070 s
CCOC(=O)c1nc(N(CCC(=O)OC)c2ccccc2)c2ccccc2n1 | 919 s
CCOc1cc(C(=O)N2CCN(c3cc(-c4ccc(Cl)cc4)[nH]n3)CC2)cc(OCC)c1OCC | 997 s
CNC(=O)[C@@H]1C[C@H](Oc2ccccc2)CN1C(=O)c1ccoc1 | 666 s
CCn1ccc(C(=O)N2CC(Oc3ccc(-c4nc(-c5ccccc5)no4)cc3)C2)n1 | 1130 s
COc1ccccc1OCC1c2ccsc2CCN1C(=O)CN(CC1CC1)C(C)=O (centres undefined) | 828 s
CCOC(=O)c1ccccc1NC(=O)N1CCOc2ccc(C)cc21 | 1220 s
O=S(=O)(c1ccc(Br)cc1)N1CCSC1c1ccco1 (centres undefined) | 965 s
CCN1C(=O)CCc2cc(NS(=O)(=O)c3cccc(Br)c3)ccc21 | 833 s
COc1cc(Cl)c(C)cc1-n1ccn(Cc2c(F)cccc2Cl)c(=O)c1=O | 855 s
CCCn1cc(S(=O)(=O)NCc2ccc(C)cc2)c2cccnc21 | 951 s
CCN1C(=O)CCc2cc(NS(=O)(=O)c3ccc(C4CCCCC4)cc3)ccc21 | 1060 s
O=C(Cc1cccs1)NC1CC(=O)N(C2CC2)C1 (centres undefined) | 584 s
Cc1nc2c(n1C)CN(C(=O)c1ccc(Cl)s1)CC2 | 574 s
Clc1ccc(-c2csc(N3CCOCC3)n2)c(Cl)c1 | 1260 s
O=C(CCSc1ccccc1)Nc1ccc2c(c1)CN(C(=O)C1CC1)CC2 | 816 s
CCOC(=O)c1c(CN2CCN(C)CC2)n(-c2ccccc2)c2cc(Br)c(OC)cc12 | 850 s

Continued, values first:

RP-LC retention time | Structure (SMILES)
933 s | COc1ccc(NC(=O)c2cc(C)n3nc(-c4ccco4)cc3n2)cc1OC
660 s | CN(c1ccc(F)cc1)S(=O)(=O)N1CCCC(C(=O)N2CCN(c3ccccn3)CC2)C1 (centres undefined)
787 s | CC(C)NC(=O)c1ccc(OCC2CCCN(C(=O)C(C)C)C2)cc1 (centres undefined)
784 s | Cc1ccc(S(=O)(=O)N2CCC(n3cnnc3C(C)C)CC2)c(C)c1
837 s | Cc1ccc(N2CCN(C(=O)CN3CCN(Cc4ccc(F)cc4)C3=O)CC2)cc1
779 s | CC(C)c1ccc(NC(=O)Cn2nc3n(c2=O)CCCCC3)cc1
698 s | Cc1cc(C(=O)N2CCCCCC2c2nnc(C)o2)no1 (centres undefined)
940 s | Cc1ccc(C)c(N2CCN(c3ccnc(SCC(=O)NC4CCCCC4)n3)CC2)c1
632 s | Cn1nc(N2CCC(NC(=O)Cc3c[nH]c4ccccc34)C2)ccc1=O (centres undefined)
888 s | CCc1ccc(OCC(=O)Nc2nnc(C3CC(=O)N(c4ccc(Cl)cc4)C3)o2)cc1 (centres undefined)
837 s | Cc1nc(-c2cc(S(=O)(=O)N3CCC(C(=O)NCc4ccco4)CC3)c(C)s2)no1
1030 s | CCOC(=O)C1CCCN(c2ccc3nnc(CCc4nc(-c5ccccc5C)no4)n3n2)C1 (centres undefined)
726 s | Cc1ccc(NC(=O)N2CCC(c3nc(C(=O)N(C)C)c(C)o3)CC2)cc1C
908 s | Cc1ccc(CNC(=O)Cn2nc(N3CCCC3)c3ccccc3c2=O)cc1
929 s | COc1cc(CNC(=O)C2CCCN(c3nccnc3Oc3ccccc3)C2)cc(OC)c1 (centres undefined)
980 s | CCOc1ccc2nc(NC(=O)Cc3csc4nc(-c5ccc(C)c(C)c5)cn34)sc2c1
844 s | Cc1cc(N2CCN(S(=O)(=O)c3cccc(Cl)c3)CC2)nc(NC2CCCCC2)n1
621 s | CCCNC(=O)C1CCN(c2ccc(SCC(=O)NCc3ccc(OC)cc3)nn2)CC1

RP-LC retention time | Structure (SMILES)
1020 s | COc1ccc(-c2noc(C3CCCN3C(=O)Nc3cc(C)ccc3C)n2)cc1 (centres undefined)
620 s | CN1CCN(CCCNC(=O)c2cc3occc3c(Nc3ccc(Cl)cc3)n2)CC1
897 s | Cc1nc(-c2ccccc2)nn1C1CCN(S(=O)(=O)c2ccccc2C(F)(F)F)C1 (centres undefined)
955 s | Cc1cc(C(=O)N2CCCCC2)c2c(=O)n(Cc3nc(-c4cccs4)oc3C)c(=O)n(C)c2n1
810 s | COc1ccccc1C(=O)Nc1ccc2c(c1)Sc1ncccc1C(=O)N2C
910 s | Cc1nc(N2CCCC(C(=O)Nc3ccc(F)cc3)C2)c2c(C)c(C)oc2n1 (centres undefined)
958 s | COc1ccc(Cl)cc1NS(=O)(=O)c1ccc(-c2nnc(C3CCC3)o2)o1
903 s | COc1ccc(CC(=O)Nc2ccc(-c3nc(Cn4nc(C)cc4C)c(C)o3)cc2)cc1
688 s | CCN(CC)CCNC(=O)C1CCCN(c2ncc(-c3ccc(F)cc3)cn2)C1 (centres undefined)
905 s | Cc1cc(C)cc(Oc2nccn3c(=O)n(CC(=O)Nc4ccc(F)cc4)nc23)c1
695 s | COc1cccc(NC(=O)NCC2CC(=O)N(Cc3ccc(F)cc3)C2)c1OC (centres undefined)
770 s | Cc1oc(-c2[nH]ncc2C(=O)N(C)C)cc1S(=O)(=O)Nc1ccc(C(C)C)cc1
809 s | CCOc1ccccc1NC(=O)N1CCCC1c1nc(-c2ccccc2OC)no1 (centres undefined)
963 s | Cn1nc(-c2nnc(-c3ccc(F)cc3)o2)c2c1CCN(S(=O)(=O)c1cccc(F)c1)C2
1150 s | COc1ccc(-c2nnc(-c3ccc(C)c(S(=O)(=O)N4CCCCCC4)c3)o2)cc1
1060 s | Cc1ccc(NC(=O)CSc2nccc(N3CCN(c4cc(C)ccc4C)CC3)n2)c(C)c1
906 s | O=C(NCCc1ccccc1)C1CCCN(C(=O)Cc2cccc3ccccc23)C1 (centres undefined)
807 s | CCCc1cc(C2CCCN2C(=O)Nc2ccc(C(=O)OC)cc2)no1 (centres undefined)
